From US20080058383A1 (priority 2003, published 2008)
Where two headings read alike, the source gives them in different places.

Key:
[1] = biological target: T1, Recombinant human androgen receptor (hAR) (Homo sapiens, UniProt P10275); test: AR competition binding assay (3H-mibolerone tracer)
T1 construct: made in house; host or cells: Sf9 insect cells
T1 sequence (P10275 1-920): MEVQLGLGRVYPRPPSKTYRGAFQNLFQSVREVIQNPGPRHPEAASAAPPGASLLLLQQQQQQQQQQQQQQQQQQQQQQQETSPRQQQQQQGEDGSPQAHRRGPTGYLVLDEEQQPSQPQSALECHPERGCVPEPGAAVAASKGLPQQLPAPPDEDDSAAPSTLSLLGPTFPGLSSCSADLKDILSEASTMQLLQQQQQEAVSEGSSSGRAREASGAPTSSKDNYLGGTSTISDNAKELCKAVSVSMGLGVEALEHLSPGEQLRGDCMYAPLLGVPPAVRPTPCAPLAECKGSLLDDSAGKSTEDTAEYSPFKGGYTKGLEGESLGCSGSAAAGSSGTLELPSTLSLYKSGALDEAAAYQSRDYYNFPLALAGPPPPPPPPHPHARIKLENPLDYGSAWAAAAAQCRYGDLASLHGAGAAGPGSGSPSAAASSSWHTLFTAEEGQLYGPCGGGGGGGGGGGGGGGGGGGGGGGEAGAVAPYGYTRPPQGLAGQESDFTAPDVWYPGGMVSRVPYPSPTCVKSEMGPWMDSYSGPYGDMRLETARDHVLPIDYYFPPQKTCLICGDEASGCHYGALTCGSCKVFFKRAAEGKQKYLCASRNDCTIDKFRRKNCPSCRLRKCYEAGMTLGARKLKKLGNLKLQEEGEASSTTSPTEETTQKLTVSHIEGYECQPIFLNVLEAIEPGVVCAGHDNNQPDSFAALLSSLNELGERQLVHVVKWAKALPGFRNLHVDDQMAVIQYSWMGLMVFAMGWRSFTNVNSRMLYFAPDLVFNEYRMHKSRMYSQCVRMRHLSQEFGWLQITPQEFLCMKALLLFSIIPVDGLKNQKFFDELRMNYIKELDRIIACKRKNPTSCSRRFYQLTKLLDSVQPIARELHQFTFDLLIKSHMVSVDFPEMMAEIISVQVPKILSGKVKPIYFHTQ
Protocol: Recombinant human androgen receptor (hAR) was extracted from Sf9 insect cells with buffer containing 1 mM EDTA, 20 mM K2HPO4, 8.7% glycerol, 20 mM Na2MoO4 and 12 mM MTG at 5*10^7 cells/ml. The cell debris was removed by centrifugation and the supernatant aliquoted and stored at −70° C.
An aliquot of AR extract was thawed on ice prior to use and diluted to approximately 0.2 nM (1 to 30 dilution) in buffer (100 mM KnHmPO4 pH 7.0, 1 mM EDTA, 8.7% glycerol, 20 mM Na2MoO4 and 1 mM DTT). The test ligands were diluted in DMSO as a dilution series of 10 concentrations in duplicate, with 1:5 dilution between each concentration. Tritiated mibolerone (^3H-Mib) was used as tracer compound and diluted to 1.6 nM in 1 mM EDTA, 20 mM Na2MoO4, 8.7% glycerol and 1 mM DTT. To a 96-well polypropylene-plate 110 μl/well of 1.6 nM ^3H-Mib, 10 μl/well test substance and 110 μl/well diluted AR was added. The plates were covered and incubated at +4° C. over night. The plates were harvested on filters to separate bound ligand from unbound ligand with a Tomtec Harvester. A prewet buffer containing 20 mM Kn(PO4) pH 7.6, 1 mM EDTA, v/v 0.5% polyethyleneimine was used to equilibrate the filter before filtering the samples and washing the filters with 20 mM Kn(PO4) pH 7.6, 1 mM EDTA 8 times. The filters were allowed to dry for 1 hour at +65° C. A scintillating wax was melted upon the filter and the radioactivity retained on the filter was measured in a Wallac Microbeta scintillation counter.
The affinity to AR was evaluated by a non-linear four-parameter logisitic model: b=(bmax−bmin)/(1+(IC50/I)̂S)+bmin, where bmax=total concentration of binding sites, bmin=non-specific binding, I=added concentration of binding inhibitor, IC50=concentration of binding inhibitor at half-maximal binding and S=slope factor. Table: Antagonist and partial antagonist and binding activity of androgen receptor modulator compounds.

[2] = biological target: T2, androgen receptor (CMV-hAR) in CV-1 cells (Homo sapiens, UniProt P10275); test: AR transactivation assay, agonist mode (ARAF cells, ALP reporter, absence of Mibolerone); type: cell-based; settings: for ARAF % AGONIST: ALP activity in absence of Mibolerone compared to standard activation curve of Mibolerone alone
T2 construct: expressed in transfected cells
T2 sequence (P10275 1-920): T1 sequence (P10275 1-920)
Protocol: (§1) The agonist and antagonist properties of compounds were determined using a cell-based system expressing stably integrated androgen receptor and an androgen responsive reporter gene. CV-1 cells (kidney fibroblasts) stably expressing CMV-hAR and alkaline phosphatase (ALP) driven by an MMTV promoter containing an androgen response element were cultured in Dulbecco's Modified Eagle Medium (DMEM), low glucose supplemented with 10% fetal bovin serum, 1% L-glutamine, and 0.7% Hygromycine B. The stably integrated cells (ARAF) were trypsinized and resuspended in Opti-MEM 1 supplemented with 2% fetal bovine serum, 1% L-Glutamine, 50 μg/ml Gentamicine and 1% Pen/Strep. The cells were counted in a Birch chamber and diluted to a concentration of 100 000 cells/ml. The cells were then seeded out in 384 plates, 5000 cells/well in 50 μl seeding media and incubated overnight in 37 C, 5% CO2.
(§2) The next day, the seeding medium was removed from the cells and 20 μl induction media (Opti-MEM 1 supplemented with 1% L-Glutamine, 50 μg/ml Gentamicine and 1% Pen/Strep)+/−0.1 nM Mibolerone was added to the wells. 10 μl of test compound diluted in induction media was then added to the wells. The cells were incubated 48 hr in 37 C, 5% CO2.
(§3) After 48 hr 5 μl of cell medium was added to white 384 plates with 100 μl of ALP substrate buffer. The plates were incubated in 37 C for 20 minutes followed by incubation at room temperature for 10 minutes before each well was read in a μBETA machine. Agonist activity was calculated from the alkaline phosphatase activity induced in the absence of Mibolerone and compared to standard activation curve generated by Mibolerone alone. Antagonist activity was calculated from the decrease in ALP activity in the presence of 0.1 nM Mibolerone. EC50 and IC50 values were calculated by using a non-linear four-parameter fit as described above.

[3] = biological target: T2, androgen receptor (CMV-hAR) in CV-1 cells; test: AR transactivation assay, antagonist mode (ARAF cells, ALP reporter, presence of 0.1 nM Mibolerone); type: cell-based; settings: for ARAF % ANTAGONIST: decrease in ALP activity in the presence of 0.1 nM Mibolerone
Protocol: as §1, §2, §3

[4] = competition with 3H-Mib, hAR extract from Sf9 cells, +4° C. over night, read-out: AR_LT IC50
[5] = CV-1 cells stably expressing hAR and MMTV-ALP, absence of Mibolerone, 48 hr, read-out: ARAF EC50
[6] = CV-1 cells stably expressing hAR and MMTV-ALP, presence of 0.1 nM Mibolerone, 48 hr, read-out: ARAF IC50

Row | SMILES | IC50 [1, 4] [nM] | EC50 [2] [nM] | ARAF % AGONIST [2] [%] | IC50 [3] [nM] | ARAF % ANTAGONIST [3] [%] | EC50 [2, 5] [nM] | IC50 [3, 6] [nM] | IC50 [1] [nM]
1 | CC(C)(CO)Nc1ccc([N+](=O)[O-])c(C(F)(F)F)c1 [Example-1, 2-Methyl-2-(4-nitro-3-trifluoromethyl-phenylamino)-propan-1-ol] | 22.8 | 26.8 | 51.7 | 2.1 | 33.1 | – | – | –
2 | Cc1cc(NC(C)(C)CO)ccc1[N+](=O)[O-] [Example-5] | 38.1 | – | 29.3 | – | 61 | 81.7 | 7.2 | –
3 | Cc1nc(NC(C)(C)CO)ccc1[N+](=O)[O-] [Example-8, 2-Methyl-2-(6-methyl-5-nitro-pyridin-2-ylamino)-propan-1-ol] | 241 | – | 10.6 | – | 82.5 | 374 | 22.3 | –
4 | N#Cc1ccc(NC2(CO)CCCC2)cc1C(F)(F)F [Example-19, 4-(1-Hydroxymethyl-cyclopentylamino)-2-trifluoromethyl-benzonitrile] | 130 | – | – | 22.4 | 95.6 | – | – | –
5 | CC(C)[C@@H](CO)Nc1ccc([N+](=O)[O-])c(C(F)(F)F)c1 [Example-30] | 113 | 1070 | 7.3 | 68.3 | 88.7 | – | – | –
6 | O=[N+]([O-])c1ccc(N[C@H](CO)CSCc2ccccc2)cc1C(F)(F)F [Example-41] | 65.1 | – | – | – | 71.7 | – | 490 | –
7 | CCCC(CO)Nc1ccc([N+](=O)[O-])c(C(F)(F)F)c1 (centres unmarked) [Example-42] | – | – | – | – | 92 | – | 493 | 486
8 | CCCC[C@@H](CO)Nc1ccc([N+](=O)[O-])c(C)n1 [Example-60] | 68.3 | – | 9.3 | – | 79.3 | 336 | 27.4 | –
9 | CC[C@H](C)[C@@H](CO)Nc1ccc([N+](=O)[O-])c(C)n1 [Example-61] | 89.3 | – | – | 68.3 | 87.4 | – | – | –
10 | Cc1nc(N[C@H](CO)CSCc2ccccc2)ccc1[N+](=O)[O-] [Example-65] | 6.2 | – | 7 | – | 89.2 | 1870 | 78 | –
11 | CCCC(CO)Nc1ccc([N+](=O)[O-])c(C)c1 (centres unmarked) [Example-78] | 54.5 | – | 25 | – | 65.4 | 280 | 25.8 | –
12 | Cc1cc(NCCNc2ccc([N+](=O)[O-])cn2)ccc1[N+](=O)[O-] [Example-86] | 443 | – | – | – | 100 | – | 351 | –
13 | CCC[C@@H](CO)Nc1ccc([N+](=O)O)cc1 [Example-103, (S)-2-(4-Nitro-phenylamino)-pentan-1-ol] | 98.7 | – | – | – | 92.9 | – | 136 | –
14 | CCC[C@@H](CO)Nc1ccc([N+](=O)[O-])cc1Br [Example-106, (S)-2-(2-Bromo-4-nitro-phenylamino)-pentan-1-ol] | – | – | – | – | 88.2 | – | 241 | 170
